Laboratory results as given in US10294202B2, “Pyrrolidinones as herbicides” (FMC Corporation, priority 2013, dated 2019).

Key:
pigweed = assay: Test A pre-/postemergence herbicide test; format: in vivo, Amaranthus retroflexus
Method in brief: (§1)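 Scoring was visual, relative to untreated controls, on a 0–100 scale after about 10 greenhouse days. Preemergence treatment used a directed soil spray over seeded loam/sand; postemergence treatment targeted one- to two-leaf plants of 2–10 cm.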

wheat = assay: Test A pre-/postemergence herbicide test; format: in vivo, Triticum aestivum; conditions: Postemergence
Method in brief: as §1

corn [1] = assay: Test A pre-/postemergence herbicide test; format: in vivo, Zea mays; conditions: Postemergence
Method in brief: as §1

rice = assay: Test B flooded paddy test; format: in vivo, Oryza sativa; conditions: 500 g ai/ha, Flood; scale of 0 to 100 where 0 is no effect and 100 is complete control
Method in brief: (§2)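 In-water application to pots flooded 3 cm deep, plants at 2-leaf stage. Held in greenhouse 13–15 days at constant flood depth. Scored 0–100 by eye against controls.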

ducksalad = assay: Test B flooded paddy test; format: in vivo, Heteranthera limosa; conditions: 500 g ai/ha, Flood; scale of 0 to 100 where 0 is no effect and 100 is complete control
Method in brief: as §2

ryegrass, Italian = assay: Test C pre-/postemergence herbicide test; format: in vivo, Lolium multiflorum
Method in brief: (§3)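 Response scores range from 0, meaning no effect, to 100, meaning complete control, assigned visually by comparison with controls roughly two weeks (13 to 15 days) after spraying. Applications were made preemergence to seeded loam–sand soil and postemergence to 1- to 4-leaf plants.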

corn [2] = assay: Test C pre-/postemergence herbicide test; format: in vivo, Zea mays
Method in brief: as §3

johnsongrass = assay: Test C pre-/postemergence herbicide test; format: in vivo, Sorghum halepense
Method in brief: as §3

lambsquarters = assay: Test C pre-/postemergence herbicide test; format: in vivo, Chenopodium album
Method in brief: as §3

morningglory = assay: Test C pre-/postemergence herbicide test; format: in vivo, Ipomoea coccinea
Method in brief: as §3

nutsedge, yellow = assay: Test C pre-/postemergence herbicide test; format: in vivo, Cyperus esculentus
Method in brief: as §3

ragweed = assay: Test C pre-/postemergence herbicide test; format: in vivo, Ambrosia elatior
Method in brief: as §3

[3] = 125 g ai/ha, visual rating on 0 to 100 scale (0 no effect, 100 complete control), approx. 10 days
[4] = 500 g ai/ha, 0 to 100 scale (0 no effect, 100 complete control)
[5] = Postemergence, 31 g ai/ha, scale 0 to 100 (0 no effect, 100 complete control)
[6] = Postemergence, 62 g ai/ha, scale 0 (no effect) to 100 (complete control)
[7] = Postemergence, 125 g ai/ha, scale 0 to 100 (0 no effect, 100 complete control)
[8] = Postemergence, 250 g ai/ha, scale 0 to 100 (0 no effect, 100 complete control)
[9] = Preemergence, 31 g ai/ha, scale 0 to 100, 0 is no effect and 100 is complete control
[10] = Preemergence, 62 g ai/ha, scale 0 to 100 (0 no effect, 100 complete control)
[11] = Preemergence, 125 g ai/ha, scale 0 to 100 (0 no effect, 100 complete control)

Q: `CN1CC(c2ccc(F)c(F)c2)C(C(=O)Nc2cccc(F)c2F)C1=O` (stereo not drawn) [Compound 303] was tested. Which “Plant response rating, Pigweed” value (pigweed; Postemergence, 125 g ai/ha, visual rating on 0 to 100 scale (0 no effect, 100 complete control), approx. 10 days) did it give?
A: 40

Q: And the “Plant response rating, Pigweed” value (pigweed; Postemergence, 500 g ai/ha, 0 to 100 scale (0 no effect, 100 complete control))?
A: 60

Q: And the “Plant response rating, Pigweed” value (pigweed; Preemergence, 125 g ai/ha, 0 to 100 scale where 0 is no effect and 100 is complete control)?
A: 20

Q: What about the “Pigweed plant response rating” value (pigweed; Preemergence, 500 g ai/ha, visual rating on 0 to 100 scale (0 no effect, 100 complete control)) of the same molecule?
A: 50

Q: And the “Plant response rating, Wheat” value (wheat; [3])?
A: 50

Q: And the “Plant response rating, Wheat” value (wheat; [4])?
A: 60

Q: And the “Plant response rating, Corn” value (corn [1]; [3])?
A: 50

Q: And the “Plant response rating, Corn” value (corn [1]; [4])?
A: 70

Q: And the “Plant response rating, Rice” value (rice)?
A: 30

Q: And the “Plant response rating, Ducksalad” value (ducksalad)?
A: 100

Q: And the “Plant response rating, Ryegrass, Italian” value (ryegrass, Italian; [5])?
A: 0

Q: What about the “Plant response rating, Ryegrass, Italian” value (ryegrass, Italian; [6]) of the same molecule?
A: 0

Q: What about the “Plant response rating, Ryegrass, Italian” value (ryegrass, Italian; [7]) of the same molecule?
A: 0

Q: What about the “Plant response rating, Ryegrass, Italian” value (ryegrass, Italian; [8]) of the same molecule?
A: 5

Q: And the “Ryegrass, Italian plant response rating” value (ryegrass, Italian; [9])?
A: 30

Q: And the “Ryegrass, Italian plant response rating” value (ryegrass, Italian; [10])?
A: 35

Q: And the “Plant response rating, Ryegrass, Italian” value (ryegrass, Italian; [11])?
A: 70

Q: And the “Plant response rating (scale of 0 to 100), Ryegrass, Italian” value (ryegrass, Italian; Preemergence, 250 g ai/ha)?
A: 75

Q: What about the “Plant response rating, Corn” value (corn [2]; [5]) of the same molecule?
A: 0

Q: And the “Plant response rating, Corn” value (corn [2]; [6])?
A: 0

Q: What about the “Plant response rating, Corn” value (corn [2]; [7]) of the same molecule?
A: 0

Q: What about the “Plant response rating, Corn” value (corn [2]; [8]) of the same molecule?
A: 15

Q: What about the “Corn plant response rating” value (corn [2]; [9]) of the same molecule?
A: 10

Q: And the “Corn plant response rating” value (corn [2]; [10])?
A: 20

Q: What about the “Plant response rating, Corn” value (corn [2]; [11]) of the same molecule?
A: 35

Q: And the “Plant response rating (scale of 0 to 100), Corn” value (corn [2]; Preemergence, 250 g ai/ha)?
A: 45

Q: What about the “Plant response rating, Johnsongrass” value (johnsongrass; [5]) of the same molecule?
A: 0

Q: And the “Plant response rating, Johnsongrass” value (johnsongrass; [6])?
A: 0

Q: And the “Plant response rating, Johnsongrass” value (johnsongrass; [7])?
A: 0

Q: What about the “Plant response rating, Johnsongrass” value (johnsongrass; [8]) of the same molecule?
A: 5

Q: What about the “Johnsongrass plant response rating” value (johnsongrass; [9]) of the same molecule?
A: 0

Q: And the “Johnsongrass plant response rating” value (johnsongrass; [10])?
A: 55

Q: And the “Plant response rating, Johnsongrass” value (johnsongrass; [11])?
A: 65

Q: And the “Plant response rating (scale of 0 to 100), Johnsongrass” value (johnsongrass; Preemergence, 250 g ai/ha)?
A: 80

Q: And the “Plant response rating, Lambsquarters” value (lambsquarters; [5])?
A: 35

Q: And the “Plant response rating, Lambsquarters” value (lambsquarters; [6])?
A: 85

Q: What about the “Plant response rating, Lambsquarters” value (lambsquarters; [7]) of the same molecule?
A: 65

Q: And the “Plant response rating, Lambsquarters” value (lambsquarters; [8])?
A: 80

Q: What about the “Lambsquarters plant response rating” value (lambsquarters; [9]) of the same molecule?
A: 55

Q: What about the “Lambsquarters plant response rating” value (lambsquarters; [10]) of the same molecule?
A: 60

Q: What about the “Plant response rating, Lambsquarters” value (lambsquarters; [11]) of the same molecule?
A: 65

Q: What about the “Plant response rating (scale of 0 to 100), Lambsquarters” value (lambsquarters; Preemergence, 250 g ai/ha) of the same molecule?
A: 80

Q: And the “Plant response rating, Morningglory” value (morningglory; [5])?
A: 10

Q: What about the “Plant response rating, Morningglory” value (morningglory; [6]) of the same molecule?
A: 60

Q: What about the “Plant response rating, Morningglory” value (morningglory; [7]) of the same molecule?
A: 0

Q: What about the “Plant response rating, Morningglory” value (morningglory; [8]) of the same molecule?
A: 0

Q: What about the “Morningglory plant response rating” value (morningglory; [9]) of the same molecule?
A: 0

Q: What about the “Morningglory plant response rating” value (morningglory; [10]) of the same molecule?
A: 0

Q: What about the “Plant response rating, Morningglory” value (morningglory; [11]) of the same molecule?
A: 15

Q: And the “Plant response rating (scale of 0 to 100), Morningglory” value (morningglory; Preemergence, 250 g ai/ha)?
A: 45

Q: And the “Plant response rating, Nutsedge, Yellow” value (nutsedge, yellow; [5])?
A: 0

Q: And the “Plant response rating, Nutsedge, Yellow” value (nutsedge, yellow; [6])?
A: 0

Q: And the “Plant response rating, Nutsedge, Yellow” value (nutsedge, yellow; [7])?
A: 0

Q: What about the “Plant response rating, Nutsedge, Yellow” value (nutsedge, yellow; [8]) of the same molecule?
A: 0

Q: And the “Nutsedge, Yellow plant response rating” value (nutsedge, yellow; [9])?
A: 0

Q: What about the “Nutsedge, Yellow plant response rating” value (nutsedge, yellow; [10]) of the same molecule?
A: 0

Q: And the “Plant response rating, Nutsedge, Yellow” value (nutsedge, yellow; [11])?
A: 0

Q: And the “Plant response rating (scale of 0 to 100), Nutsedge, Yellow” value (nutsedge, yellow; Preemergence, 250 g ai/ha)?
A: 25

Q: What about the “Plant response rating, Ragweed” value (ragweed; [5]) of the same molecule?
A: 0

Q: And the “Plant response rating, Ragweed” value (ragweed; [6])?
A: 0

Q: What about the “Plant response rating, Ragweed” value (ragweed; [7]) of the same molecule?
A: 40

Q: What about the “Plant response rating, Ragweed” value (ragweed; [8]) of the same molecule?
A: 55

Q: What about the “Ragweed plant response rating” value (ragweed; [9]) of the same molecule?
A: 5

Q: And the “Ragweed plant response rating” value (ragweed; [10])?
A: 70

Q: What about the “Plant response rating, Ragweed” value (ragweed; [11]) of the same molecule?
A: 75

Q: And the “Plant response rating (scale of 0 to 100), Ragweed” value (ragweed; Preemergence, 250 g ai/ha)?
A: 80
